Results reported in patent publication US20260240837A1, “Compositions Reducing the Expression or Activity of C1 GALT1 for Treating Ewing Sarcoma” (University of Massachusetts Medical School, priority 2023, published 2026).
“Also recorded” adds a separate entry of the source. Residues, ends and D or L forms follow the SMILES beside them. *: point of attachment. Cbz = O=C(OCc1ccccc1)*

Experiments:
EWSR1::FLI1 [1] = assay: qRT-PCR of EWSR1::FLI1 expression in A673 cells; assay type: cell-based, human; settings: compound at 2.5-10 μM for 48 hours, FIGS. 6B-6C
Protocol: (§1) Total RNA was isolated from cells using Trizol (Invitrogen, Cat #15596). cDNA was synthesized using Proto Script II reverse transcription kit (New England Biolabs (NEB), Ipswich, MA, Cat #E6560) and real-time PCR reactions were performed using Quant Studio 3 (Applied Biosystems by Thermo Fisher Scientific) using primer sequences listed in Table 2. Gene expression was normalized to that of GAPDH. A control without reverse transcription (no-RT control) was carried out in parallel to rule out the possibility of DNA contamination. The experiments were performed three independent times.
(§2) In the experiment in FIG. 5D, cells were treated with 10 μM ketoconazole (Sigma, Cat #PHR1385; CAS No. 65277-42-1) for 72 hours. Dimethyl sulfoxide (DMSO) was used as vehicle control.

EWSR1::FLI1 [2] = assay: Immunoblot of EWSR1::FLI1 protein levels (anti-FLI1 antibody) in A673 cells; assay type: cell-based, human; settings: compound at 2.5-10 μM for 48 hours, FIGS. 6B-6C
Protocol: Cells extracts were prepared in radioimmunoprecipitation assay (RIPA) buffer (1% Triton-X100, 0.1% sodium dodecyl sulfate (SDS), 0.5% deoxycholic acid, 20 mM tris(hydroxymethyl)aminomethane (Tris), pH 7.5, 10% glycerol) containing 1× complete ethylenediaminetetraacetic acid (EDTA)-free protease inhibitor cocktail (Roche, Basel, Switzerland, Cat #11873580001) and 1 mM phenylmethylsulfonyl fluoride (PMSF). For the immunoblot in FIG. 7L, cells expressing FLAG-SMO (wild-type and mutants) were treated with 10 μM MG132 (Selleck Chemicals, Houston, TX, Cat #S2619; CAS No. 1211877-36-9) for 12 hours or 100 nM bafilomycin A1 (Selleck Chemicals, Cat #S1413; CAS No. 88899-55-2) for 6 hours. Total cell lysates (30 μg) were subjected to SDS-polyacrylamide gel electrophoresis (PAGE) and transferred to nitrocellulose membrane, which were blocked with 5% non-fat dry milk, and incubated with the following antibodies overnight at 4° C.: anti-C1GALT1 (1:1000 dilution; Santa Cruz Biotechnology, Dallas, TX, Cat #SC-100745), anti-FLI1 (1:2000 dilution; Abcam, Cambridge, United Kingdom, Cat #ab 133485), anti-EWSR1 (1:1000 dilution; Sigma Aldrich, Cat #HPA051771), anti-GLI1 (1:1000 dilution; Cell Signaling Technology, Danvers, MA, Cat #2553), anti-GLI2 (1:500 dilution; Abcam, Cat #ab187386), anti-PARP1 (1:500 dilution; Santa Cruz Biotechnology, Cat #SC-8007), anti-SMO (1:2000 dilution; Abcam, Cat #ab236465), anti-β-actin (1:2000 dilution; Sigma, Cat #A2228), anti-GAPDH (1:2000 dilution; Abcam, Cat #ab8245) or anti-FLAG M2 (1:1000 dilution; Sigma, Cat #F1804). The blots were imaged by exposing to x-ray film. The experiments were conducted three independent times, and the results from one representative experiment are shown.
as §2

SMO = assay: Immunoblot and qRT-PCR of SMO in A673 cells; assay type: cell-based, human; settings: 100 nM ITZ for 72 hours plus MG132 or BafA1, FIG. 7K
Protocol: as §1
(§3) Cells extracts were prepared in radioimmunoprecipitation assay (RIPA) buffer (1% Triton-X100, 0.1% sodium dodecyl sulfate (SDS), 0.5% deoxycholic acid, 20 mM tris(hydroxymethyl)aminomethane (Tris), pH 7.5, 10% glycerol) containing 1× complete ethylenediaminetetraacetic acid (EDTA)-free protease inhibitor cocktail (Roche, Basel, Switzerland, Cat #11873580001) and 1 mM phenylmethylsulfonyl fluoride (PMSF). For the immunoblot in FIG. 7L, cells expressing FLAG-SMO (wild-type and mutants) were treated with 10 μM MG132 (Selleck Chemicals, Houston, TX, Cat #S2619; CAS No. 1211877-36-9) for 12 hours or 100 nM bafilomycin A1 (Selleck Chemicals, Cat #S1413; CAS No. 88899-55-2) for 6 hours. […]

[3] = tested on: FLAG-SMO (T55A) and FLAG-SMO (T500A); assay: Immunoblot of FLAG-SMO mutants stably expressed in TC-71 cells; assay type: cell-based, human; settings: FIG. 9F
Protocol: as §3

[4] = tested on: FLAG-SMO (T55A) and FLAG-SMO (T500A); assay: Ubiquitination immunoprecipitation assay in A673 cells; assay type: cell-based, human; settings: A673 cells expressing HA-Ub; 10 μM MG132 or 100 nM bafilomycin A1 for 8 hours; FIG. 7M
Protocol: A673 cells stably expressing FLAG-tagged wild-type SMO, FLAG-SMO (T55A) or FLAG-SMO (T500A) were transfected with a plasmid expressing HA-tagged ubiquitin (HA-Ub; Addgene plasmid #18712 (Kamitani et al., 1997) and treated in the presence or absence of 10 μM MG132 for 8 hours or 100 nM bafilomycin A1 for 8 hours. Cell lysates were incubated with either an anti-HA magnetic beads (Sigma, Cat #SAE0197) or anti-FLAG M2 magnetic beads (Sigma, Cat #M8823), and immunoprecipitated proteins were detected using an anti-FLAG M2 (1:1500 dilution; Sigma, Cat #F1804) or anti-HA (1:1500 dilution; Cell Signaling Cat #2367) antibody.

[5] = tested on: FLAG-SMO (T55A) and FLAG-SMO (T500A); assay: Immunoblot of FLAG-SMO mutants stably expressed in A673 cells; assay type: cell-based, human; settings: 10 μM MG132 for 12 hours or 100 nM bafilomycin A1 for 6 hours, FIG. 7L
Description: To generate cell lines stably ectopically expressing EWSR1::FLI1 (also referred to as EWS-FLI1, EWS::FLI1, or EWSR1-FLI1), TC-71 or NIH 3T3 cells were transduced with the lentiviral expression plasmid pCDH-puro-EWS-FLI1 or, as a control, pCDH-CMV-MCS-EFla-Puro and cells were selected with puromycin for five days. NIH 3T3 cells stably expressing SMO were generated by transduction of pHAGE-SMO or, as a control, pHAGE puro. NIH 3T3 cells stably expressing C1GALT1 were generated by transduction of C1GALT1-expression plasmid EX-W0494-Lv120 or, as a control, EX-EGFP-Lv120. A673 cell lines stably expressing FLAG-tagged wild-type SMO, FLAG-SMO (T55A), or FLAG-SMO (T500A) used lentiviral plasmids synthesized by GenScript in the pGenLenti vector.
Cells extracts were prepared in radioimmunoprecipitation assay (RIPA) buffer (1% Triton-X100, 0.1% sodium dodecyl sulfate (SDS), 0.5% deoxycholic acid, 20 mM tris(hydroxymethyl)aminomethane (Tris), pH 7.5, 10% glycerol) containing 1× complete ethylenediaminetetraacetic acid (EDTA)-free protease inhibitor cocktail (Roche, Basel, Switzerland, Cat #11873580001) and 1 mM phenylmethylsulfonyl fluoride (PMSF). […]

SMO and GLI1 = assay: Immunoblot and qRT-PCR of SMO and GLI1 in NIH 3T3 cells; assay type: cell-based, mouse; settings: FIG. 7E
Protocol: as §1, §3

[6] = tested on: EWSR1::FLI1^tdTomato reporter; assay: Flow cytometry of tdTomato in A673/EWSR1::FLI1^tdTomato/Cas9/EGFP reporter cells; assay type: cell-based, human; settings: 10 μM for 72 hours; FIG. 5D
Protocol: To confirm that knockdown of EWSR1::FLI1 would reduce tdTomato fluorescence, A673/EWSR1::FLI1^tdTomato cells (1×10^5 cells/well in a 6-well plate) were infected with lentiviral particles expressing a non-silencing (NS), EWSR1, or FLI1 short hairpin RNA (shRNA) (Table 3), selected with 2 μg/ml puromycin for 5 days, and analyzed by flow cytometry using a BD LSRII flow cytometer (BD Biosciences). A673/EWSR1::FLI1^tdTomato cells were then infected with lentiviral particles expressing the plasmid lentiCas9-Blast (a gift from Feng Zhang; Addgene plasmid #52962; (Sanjana et al., 2014)) and selected with 3 μg/ml blasticidin for 7 days. Cas9 activity was confirmed by transducing A673/EWSR1::FLI1^tdTomato/Cas9 cells with the lentiviral vector pXPR_011 (a gift from John Doench and David Root; Addgene plasmid #59702; (Doench et al., 2014)), which carries a puromycin resistance marker and includes an enhanced green fluorescent protein (EGFP, also referred to as GFP) reporter gene and an sgRNA sequence specifically targeting the EGFP gene, followed by selection with 2 μg/ml puromycin for 5 days and analysis of EGFP by flow cytometry. Finally, A673/EWSR1::FLI1^tdTomato/Cas9 cells were infected with lentiviral particles expressing the plasmid pLenti CMV EGFP Blast (659-1) (a gift from Eric Campeau and Paul Kaufman; Addgene plasmid #17445 (Campeau et al., 2009)). […]

C1GALT1 = C1GALT1 (Homo sapiens, UniProt Q9NS00); settings: previous studies (Lin et al., 2018); cited from earlier work
C1GALT1, sequence (Q9NS00 whole entry): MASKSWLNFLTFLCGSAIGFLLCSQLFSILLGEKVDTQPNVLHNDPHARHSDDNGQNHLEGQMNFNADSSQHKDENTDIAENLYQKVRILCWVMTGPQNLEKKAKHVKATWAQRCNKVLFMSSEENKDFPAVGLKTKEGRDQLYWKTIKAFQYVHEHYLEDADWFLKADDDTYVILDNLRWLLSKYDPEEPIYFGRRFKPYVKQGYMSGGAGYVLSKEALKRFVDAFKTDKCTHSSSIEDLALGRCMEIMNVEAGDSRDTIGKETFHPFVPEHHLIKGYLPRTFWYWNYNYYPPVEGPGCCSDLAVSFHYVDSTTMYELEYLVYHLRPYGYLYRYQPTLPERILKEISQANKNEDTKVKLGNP
EWSR1::FLI1/ERG = assay: qRT-PCR and immunoblot of EWSR1::FLI1/ERG in TC-71, TC-32 and TC-106 cells; assay type: cell-based, human; settings: 48 hours, FIG. 9D
[7] = Animal weight / tolerability in xenograft-bearing mice; settings: mice with TC-71, TC-32 or TC-106 xenografts; 100 mg/kg; FIG. 11G
Protocol: A673, TC-71, TC-106, or TC-32 cells (5×10^6) were suspended in PBS and […] ® extracellular matrix (Corning Cat #356234) in a 1:1 ratio, and subcutaneously injected into the right flank of 6-7 week old NOD scid gamma (NSG) immunocompromised mice (n=3 for each vehicle or drug treatment). Tumor dimensions were measured every 3 days with calipers, and the tumor volume was calculated using the formula volume=width^2× length/2.

CC1=C2C[C@H]3[C@@H](CC=C4C[C@@H](O)CC[C@@]43C)[C@@H]2CC[C@]12O[C@@H]1C[C@H](C)CN[C@H]1[C@H]2C [cyclopamine]
EWSR1::FLI1 mRNA levels (EWSR1::FLI1 [1]): dose-dependent reduction
EWSR1::FLI1 protein levels (EWSR1::FLI1 [2]): dose-dependent reduction

CO/C1=C\C(C)=C\[C@@H](C)[C@@H](O)[C@@H](C)C/C(C)=C/C=C/[C@H](OC)[C@@H]([C@@H](C)[C@@H](O)[C@H](C)[C@@]2(O)C[C@@H](O)[C@H](C)[C@@H](C(C)C)O2)OC1=O [bafilomycin A1]
reduction in SMO levels observed upon ITZ treatment (SMO): reversed
stability of O-GalNAc-glycosylation-defective SMO mutants [3]: restored
ubiquitination of SMO (T55A) and SMO (T500A) [4]: detected
expression of SMO (T55A) and SMO (T500A) mutant proteins [5]: restored

CC(C)C[C@@H](C=O)NC(=O)[C@H](CC(C)C)NC(=O)[C@H](CC(C)C)NC(=O)OCc1ccccc1 [MG132] (Cbz-Leu-Leu-Leu-aldehyde)
reduction in SMO levels observed upon ITZ treatment (SMO): reversed
stability of O-GalNAc-glycosylation-defective SMO mutants [3]: restored
ubiquitination of SMO (T55A) and SMO (T500A) [4]: detected
expression of SMO (T55A) and SMO (T500A) mutant proteins [5]: restored

CN(C)c1ccccc1CN1CCCN(Cc2ccccc2N(C)C)C1c1ccncc1 [GANT-61]
EWSR1::FLI1 mRNA levels (EWSR1::FLI1 [1]): dose-dependent reduction
EWSR1::FLI1 protein levels (EWSR1::FLI1 [2]): dose-dependent reduction

CNC1CCC(N(Cc2cccc(-c3ccncc3)c2)C(=O)c2sc3ccccc3c2Cl)CC1.Cl (stereo not shown) [SAG, Smoothened Agonist hydrochloride]
EWSR1::FLI1 mRNA levels (EWSR1::FLI1 [1]): dose-dependent increase
EWSR1::FLI1 protein levels (EWSR1::FLI1 [2]): dose-dependent increase
levels of SMO and GLI1 (SMO and GLI1): increased levels

CC(=O)N1CCN(c2ccc(OCC3COC(Cn4ccnc4)(c4ccc(Cl)cc4Cl)O3)cc2)CC1 (stereo not shown) [ketoconazole]
EWSR1::FLI1 expression (EWSR1::FLI1^tdTomato reporter) [6]: does not reduce; also recorded: no effect; also recorded: did not result in reduced
inhibition of C1GALT1 (C1GALT1): not to inhibit; also recorded: does not inhibit

CCC(C)n1ncn(-c2ccc(N3CCN(c4ccc(OCC5COC(Cn6cncn6)(c6ccc(Cl)cc6Cl)O5)cc4)CC3)cc2)c1=O (stereo not shown) [ITZ, itraconazole]
EWSR1::FLI1/ERG expression (EWSR1::FLI1/ERG): reduced
animal weight [7]: absence of weight loss
